Test results reported in the supplement of paper PMC10307832.

Legend:
Experiment in all cases: relative viability (nuclei count vs DMSO), 5 days (fraction); higher = more cells survive
LCLC-97TM1 = test system: LCLC-97TM1
In short: (§1)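 Relative viability divides the nuclei count in treated wells by that in vehicle wells. Lung cancer cell lines were seeded in 1536-well plates, dosed by pin tool the next day, and fixed and stained after 5 days in one step with final 0.05% Triton X-100, 1% formaldehyde and 1 ug/ml Hoechst. Dosing was a single drug or a fixed anchor-drug dose plus five library-drug doses (not always all listed) in √10 steps, and values are medians of duplicate plates imaged at 4×.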

NCI-H2347 = test system: NCI-H2347
In short: as §1

EMC-BAC-2 = test system: EMC-BAC-2
In short: as §1

NCI-H1734 = test system: NCI-H1734
In short: as §1

NCI-H322M = test system: NCI-H322M
In short: as §1

HOP-62 = test system: HOP-62
In short: as §1

LXF-289 = test system: LXF-289
In short: as §1

SW 1573 = test system: SW 1573
In short: as §1

NCI-H661 = test system: NCI-H661
In short: as §1

EPLC-272H = test system: EPLC-272H
In short: as §1

H3255 = test system: H3255
In short: as §1

NCI-H647 = test system: NCI-H647
In short: as §1

NCI-H1915 = test system: NCI-H1915
In short: as §1

NCI-H2126 = test system: NCI-H2126
In short: as §1

NCI-H2023 = test system: NCI-H2023
In short: as §1

NCI-H2085 = test system: NCI-H2085
In short: as §1

NCI-H2009 = test system: NCI-H2009
In short: as §1

PC-14 = test system: PC-14
In short: as §1

NCI-H1563 = test system: NCI-H1563
In short: as §1

SK-LU-1 = test system: SK-LU-1
In short: as §1

NCI-H1993 = test system: NCI-H1993
In short: as §1

COc1nc(C)cnc1NS(=O)(=O)c1cccnc1-c1ccc(-c2nnco2)cc1 [Zibotentan] + Nc1nc2[nH]cc(CCc3ccc(C(=O)N[C@@H](CCC(=O)O)C(=O)O)cc3)c2c(=O)[nH]1 [Pemetrexed] (partner 0.2 µM)
relative viability (LCLC-97TM1; first compound 0.08 µM): 0.192
relative viability (LCLC-97TM1; first compound 0.253 µM): 0.181
relative viability (LCLC-97TM1; first compound 0.8 µM): 0.154
relative viability (LCLC-97TM1; first compound 2.53 µM): 0.175
relative viability (NCI-H2347; first compound 0.08 µM): 0.416
relative viability (NCI-H2347; first compound 0.253 µM): 0.463
relative viability (NCI-H2347; first compound 0.8 µM): 0.465
relative viability (NCI-H2347; first compound 2.53 µM): 0.471
relative viability (EMC-BAC-2; first compound 0.08 µM): 0.457
relative viability (EMC-BAC-2; first compound 0.8 µM): 0.406
relative viability (EMC-BAC-2; first compound 2.53 µM): 0.44
relative viability (NCI-H1734; first compound 0.08 µM): 0.404
relative viability (NCI-H1734; first compound 0.253 µM): 0.423
relative viability (NCI-H1734; first compound 0.8 µM): 0.396
relative viability (NCI-H1734; first compound 2.53 µM): 0.44
relative viability (NCI-H322M; first compound 0.08 µM): 0.661
relative viability (NCI-H322M; first compound 0.253 µM): 0.553
relative viability (NCI-H322M; first compound 0.8 µM): 0.526
relative viability (NCI-H322M; first compound 2.53 µM): 0.65
relative viability (HOP-62; first compound 0.08 µM): 0.319
relative viability (HOP-62; first compound 0.253 µM): 0.408
relative viability (HOP-62; first compound 0.8 µM): 0.281
relative viability (HOP-62; first compound 2.53 µM): 0.352
relative viability (LXF-289; first compound 0.08 µM): 0.88
relative viability (LXF-289; first compound 0.253 µM): 0.936
relative viability (LXF-289; first compound 0.8 µM): 0.854
relative viability (LXF-289; first compound 2.53 µM): 0.916
relative viability (SW 1573; first compound 0.08 µM): 0.872
relative viability (SW 1573; first compound 0.8 µM): 0.783
relative viability (SW 1573; first compound 2.53 µM): 0.823
relative viability (NCI-H661; first compound 0.08 µM): 0.931
relative viability (NCI-H661; first compound 0.253 µM): 0.881
relative viability (NCI-H661; first compound 0.8 µM): 0.873
relative viability (NCI-H661; first compound 2.53 µM): 0.912
relative viability (EPLC-272H; first compound 0.253 µM): 0.319
relative viability (EPLC-272H; first compound 0.8 µM): 0.309
relative viability (EPLC-272H; first compound 2.53 µM): 0.405
relative viability (H3255; first compound 0.08 µM): 0.635
relative viability (H3255; first compound 0.253 µM): 0.549
relative viability (H3255; first compound 0.8 µM): 0.575
relative viability (H3255; first compound 2.53 µM): 0.56
relative viability (NCI-H647; first compound 0.08 µM): 0.165
relative viability (NCI-H647; first compound 0.253 µM): 0.171
relative viability (NCI-H647; first compound 0.8 µM): 0.181
relative viability (NCI-H647; first compound 2.53 µM): 0.201
relative viability (NCI-H1915; first compound 0.08 µM): 0.477
relative viability (NCI-H1915; first compound 0.253 µM): 0.493
relative viability (NCI-H1915; first compound 0.8 µM): 0.357
relative viability (NCI-H1915; first compound 2.53 µM): 0.526
relative viability (NCI-H2126; first compound 0.08 µM): 0.713
relative viability (NCI-H2126; first compound 0.253 µM): 0.657
relative viability (NCI-H2126; first compound 0.8 µM): 0.435
relative viability (NCI-H2126; first compound 2.53 µM): 0.78
relative viability (NCI-H2023; first compound 0.08 µM): 0.243
relative viability (NCI-H2023; first compound 0.8 µM): 0.225
relative viability (NCI-H2023; first compound 2.53 µM): 0.251
relative viability (NCI-H2085; first compound 0.08 µM): 0.884
relative viability (NCI-H2085; first compound 0.253 µM): 0.852
relative viability (NCI-H2085; first compound 0.8 µM): 0.892
relative viability (NCI-H2085; first compound 2.53 µM): 0.918
relative viability (NCI-H2009; first compound 0.08 µM): 1.03
relative viability (NCI-H2009; first compound 0.253 µM): 1.01
relative viability (NCI-H2009; first compound 0.8 µM): 1.01
relative viability (NCI-H2009; first compound 2.53 µM): 1.03
relative viability (PC-14; first compound 0.08 µM): 0.143
relative viability (PC-14; first compound 0.253 µM): 0.12
relative viability (PC-14; first compound 0.8 µM): 0.129
relative viability (PC-14; first compound 2.53 µM): 0.144
relative viability (NCI-H1563; first compound 0.08 µM): 0.827
relative viability (NCI-H1563; first compound 0.253 µM): 0.703
relative viability (NCI-H1563; first compound 0.8 µM): 0.757
relative viability (NCI-H1563; first compound 2.53 µM): 0.66
relative viability (SK-LU-1; first compound 0.08 µM): 0.95
relative viability (SK-LU-1; first compound 0.253 µM): 0.705
relative viability (SK-LU-1; first compound 0.8 µM): 1.01
relative viability (SK-LU-1; first compound 2.53 µM): 0.99
relative viability (NCI-H1993; first compound 0.08 µM): 0.695
relative viability (NCI-H1993; first compound 0.253 µM): 0.557
relative viability (NCI-H1993; first compound 0.8 µM): 0.557
relative viability (NCI-H1993; first compound 2.53 µM): 0.545
